Data reported in PubChem BioAssay AID330 (DTP/NCI, 2004).
Several values for one entry are separate records, joined by “and”; a condition that tells them apart may be missing. Equal values may be shown once. Inconclusive results and toxic doses are left out. The calls were made as follows: active = survival T/C of 150% or more; inactive = T/C below 125% in these data.

System: P388 leukemia ip, CD2F1 mice, survival T/C
Assay: NCI In Vivo Anticancer Drug Screen. Data for tumor model P388 Leukemia (intraperitoneal) in CD2F1 (CDF1) mice
Conditions: endpoint: median survival time, higher = longer survival
Method in brief: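 Mice carrying the transplanted tumor received test compound or vehicle. Survival was recorded in each group, and the value is the treated-group measurement divided by that of the vehicle-treated control group.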

[1] = dose: 6.25 mg/kg/injection, schedule: Q01DX005 (ip), vehicle: Klucel (hydroxypropylcellulose) (HPC)
[2] = dose: 12.5 mg/kg/injection, schedule: Q01DX005 (ip), vehicle: Klucel (hydroxypropylcellulose) (HPC)
[3] = dose: 25.0 mg/kg/injection, schedule: Q01DX005 (ip), vehicle: Klucel (hydroxypropylcellulose) (HPC)
[4] = dose: 50.0 mg/kg/injection, schedule: Q01DX005 (ip), vehicle: Klucel (hydroxypropylcellulose) (HPC)
[5] = dose: 100.0 mg/kg/injection, schedule: Q01DX005 (ip), vehicle: Klucel (hydroxypropylcellulose) (HPC)
[6] = dose: 200.0 mg/kg/injection, schedule: Q01DX005 (ip), vehicle: Klucel (hydroxypropylcellulose) (HPC)
[7] = dose: 3.12 mg/kg/injection, schedule: Q01DX005 (ip), vehicle: Klucel (hydroxypropylcellulose) (HPC)
[8] = dose: 200.0 mg/kg/injection, schedule: Q01DX009 (ip), vehicle: saline
[9] = dose: 50.0 mg/kg/injection, schedule: Q01DX005 (ip), vehicle: saline with Tween-80
[10] = dose: 100.0 mg/kg/injection, schedule: Q01DX005 (ip), vehicle: saline with Tween-80
[11] = dose: 200.0 mg/kg/injection, schedule: Q01DX005 (ip), vehicle: saline with Tween-80
[12] = dose: 100.0 mg/kg/injection, schedule: Q01DX001 (ip), vehicle: Klucel (hydroxypropylcellulose) (HPC)

Measured: T/C

CC12CCC(OC3OC(CO)C(O)C(O)C3O)C=C1CCC1C2CCC2(C)C(c3ccc(=O)oc3)CCC12 (stereo unspecified)
inactive: [1] 95 % of control | [2] 98 % of control | [3] 101 % of control and 98 % of control

CC1(C)OC2(C)CCC1C1C2N1C(=O)c1ccccc1 (stereo unspecified)
inactive: [4] 94 % of control | [5] 102 % of control | [6] 102 % of control

[N-]=[N+]=C1N=Nc2ccccc21
inactive: dose: 0.78 mg/kg/injection, schedule: Q01DX005 (ip), vehicle: Klucel (hydroxypropylcellulose) (HPC) 99 % of control | dose: 1.56 mg/kg/injection, schedule: Q01DX005 (ip), vehicle: Klucel (hydroxypropylcellulose) (HPC) 107 % of control | [7] 107 % of control

NC(CCCCNC(=S)S)C(=O)O.[Zn+2] (stereo unspecified)
inactive: [4] 107 % of control | [5] 107 % of control | [6] 107 % of control

COc1ccc2c(ccc3c(=O)c4c([nH]c32)CCC4)n1
inactive: dose: 12.5 mg/kg/injection, schedule: Q04DX002 (ip), vehicle: saline with Tween-80 111 % of control | dose: 25.0 mg/kg/injection, schedule: Q04DX002 (ip), vehicle: saline with Tween-80 114 % of control | dose: 50.0 mg/kg/injection, schedule: Q04DX002 (ip), vehicle: saline with Tween-80 95 % of control

c1csc(C[N+]23CN4CN(CN(C4)C2)C3)c1
inactive: dose: 130.0 mg/kg/injection, schedule: Q01DX009 (ip), vehicle: saline 109 % of control | [8] 118 % of control | dose: 300.0 mg/kg/injection, schedule: Q01DX009 (ip), vehicle: saline 123 % of control

CC1=NCc2nn(C)nc2N1
inactive: dose: 50.0 mg/kg/injection, schedule: Q01DX009 (ip), vehicle: saline 100 % of control | dose: 100.0 mg/kg/injection, schedule: Q01DX009 (ip), vehicle: saline 100 % of control | [8] 97 % of control

COc1ccc([B-]23OCC[N+]2(CNC(=O)C2=C(O)C4(O)C(=O)C5=C(O)c6c(O)cccc6C(C)(O)C5CC4C(N(C)C)C2=O)CCO3)cc1 (stereo unspecified)
inactive: [4] 105 % of control | [5] 105 % of control | [6] 105 % of control

Cc1cccc(Nc2nc(C)nc3[nH]c(Cc4ccccc4)c(C)c23)c1
inactive: [4] 86 % of control | [5] 86 % of control | [6] 88 % of control

NC(CCCCNc1ccc([N+](=O)[O-])cc1[N+](=O)[O-])C(=O)NC(Cc1ccc(O)cc1)C(=O)O (stereo unspecified)
inactive: dose: 50.0 mg/kg/injection, schedule: Q01DX005 (ip), vehicle: saline + Tween-80 + alcohol 101 % of control | dose: 100.0 mg/kg/injection, schedule: Q01DX005 (ip), vehicle: saline + Tween-80 + alcohol 101 % of control | dose: 200.0 mg/kg/injection, schedule: Q01DX005 (ip), vehicle: saline + Tween-80 + alcohol 103 % of control

CC(C)CC1CC(=O)C(=O)C(CC(C)C)C1 (stereo unspecified)
inactive: [4] 95 % of control | [5] 97 % of control | [6] 110 % of control

[Cl][Sn]1([Cl])[CH2]CCCCCCCCCC[CH2][Sn]([Cl])([Cl])[CH2]CCCCCCCCCC[CH2]1
inactive: [9] 100 % of control | [10] 86 % of control and 96 % of control | [11] 91 % of control

O=C(O)CCCc1cccc2c1CCCC2
inactive: [4] 102 % of control | [5] 100 % of control | [6] 100 % of control

COc1cc(OC)c(-c2cc3ccc(OCc4ccccc4)cc3oc2=O)cc1OC
inactive: [12] 102 % of control | dose: 200.0 mg/kg/injection, schedule: Q01DX001 (ip), vehicle: Klucel (hydroxypropylcellulose) (HPC) 105 % of control | dose: 400.0 mg/kg/injection, schedule: Q01DX001 (ip), vehicle: Klucel (hydroxypropylcellulose) (HPC) 94 % of control

CC[C@H]1CN2CCc3c([nH]c4ccccc34)[C@@H]2C[C@@H]1/C(=C\OC)C(=O)OC
inactive: [9] 108 % of control | [10] 108 % of control | [11] 108 % of control

CCCCCN(CCCCC)CC(O)c1c(Cl)ccc2ccccc12 (stereo unspecified)
inactive: dose: 12.5 mg/kg/injection, schedule: Q01DX005 (ip), vehicle: saline with Tween-80 106 % of control | dose: 25.0 mg/kg/injection, schedule: Q01DX005 (ip), vehicle: saline with Tween-80 103 % of control | [9] 103 % of control and 97 % of control | [10] 106 % of control | [11] 112 % of control

O=C1/C(=N/O)Cc2ccccc21
inactive: dose: 12.5 mg/kg/injection, schedule: Q04DX003 (ip), vehicle: saline with Tween-80 100 % of control | dose: 25.0 mg/kg/injection, schedule: Q04DX003 (ip), vehicle: saline with Tween-80 100 % of control | dose: 50.0 mg/kg/injection, schedule: Q04DX003 (ip), vehicle: saline with Tween-80 100 % of control

CC(C)(C)n1nc(C2CC2)c(Br)c1NC(=O)c1ccccc1Cl
inactive: dose: 30.0 mg/kg/injection, schedule: Q01DX005 (ip), vehicle: Klucel (hydroxypropylcellulose) (HPC) 106 % of control | dose: 60.0 mg/kg/injection, schedule: Q01DX005 (ip), vehicle: Klucel (hydroxypropylcellulose) (HPC) 109 % of control | dose: 120.0 mg/kg/injection, schedule: Q01DX005 (ip), vehicle: Klucel (hydroxypropylcellulose) (HPC) 105 % of control | dose: 240.0 mg/kg/injection, schedule: Q01DX005 (ip), vehicle: Klucel (hydroxypropylcellulose) (HPC) 100 % of control

CCC1(C)CC(C#N)(C#N)C(=O)NC1=O (stereo unspecified)
inactive: dose: 60.0 mg/kg/injection, schedule: Q01DX005 (ip), vehicle: saline with Tween-80 100 % of control | dose: 120.0 mg/kg/injection, schedule: Q01DX005 (ip), vehicle: saline with Tween-80 97 % of control | dose: 240.0 mg/kg/injection, schedule: Q01DX005 (ip), vehicle: saline with Tween-80 100 % of control

Cc1cc(=O)n2c3c(c4c(cc13)c(CBr)cc(=O)n4C)OC2
inactive: dose: 12.5 mg/kg/injection, schedule: Q01DX001 (ip), vehicle: Klucel (hydroxypropylcellulose) (HPC) 96 % of control | dose: 25.0 mg/kg/injection, schedule: Q01DX001 (ip), vehicle: Klucel (hydroxypropylcellulose) (HPC) 96 % of control | dose: 50.0 mg/kg/injection, schedule: Q01DX001 (ip), vehicle: Klucel (hydroxypropylcellulose) (HPC) 112 % of control | [12] 101 % of control

CCC(Br)C1C/C=C\CC2OC(C=C=CBr)CC2O1 (stereo unspecified)
inactive: [7] 100 % of control | dose: 3.75 mg/kg/injection, schedule: Q01DX001 (ip), vehicle: Klucel (hydroxypropylcellulose) (HPC) 94 % of control | [1] 95 % of control and 98 % of control | dose: 7.5 mg/kg/injection, schedule: Q01DX001 (ip), vehicle: Klucel (hydroxypropylcellulose) (HPC) 90 % of control | [2] 95 % of control and 104 % of control | dose: 15.0 mg/kg/injection, schedule: Q01DX001 (ip), vehicle: Klucel (hydroxypropylcellulose) (HPC) 91 % of control | [3] 91 % of control and 100 % of control | dose: 30.0 mg/kg/injection, schedule: Q01DX001 (ip), vehicle: Klucel (hydroxypropylcellulose) (HPC) 91 % of control | [4] 98 % of control | [5] 96 % of control

NC(=S)N/N=C/c1[nH]c2cc(Br)c(Br)cc2c1Br
inactive: dose: 100.0 mg/kg/injection, schedule: Q01DX001 (ip), vehicle: saline with Tween-80 91 % of control | dose: 200.0 mg/kg/injection, schedule: Q01DX001 (ip), vehicle: saline with Tween-80 91 % of control | dose: 400.0 mg/kg/injection, schedule: Q01DX001 (ip), vehicle: saline with Tween-80 98 % of control

c1ccc(-c2cn3ccsc3n2)cc1
inactive: dose: 25.0 mg/kg/injection, schedule: Q01DX009 (ip), vehicle: other 109 % of control | dose: 50.0 mg/kg/injection, schedule: Q01DX009 (ip), vehicle: other 115 % of control | dose: 100.0 mg/kg/injection, schedule: Q01DX009 (ip), vehicle: other 115 % of control | dose: 200.0 mg/kg/injection, schedule: Q01DX009 (ip), vehicle: other 115 % of control
